Experimental data as given in patent US3951949A, “Sulfates of hydroxyethyl starch” (Ajinomoto Co., Inc., priority 1973, dated 1976).

Tests used:
[1] = biological target: bovine serum albumin (Bos taurus, UniProt P02769); experiment: Inhibition of heat denaturation of serum protein (turbidity); details: 0.5 (W/V) % bovine serum albumin, test substance 3 × 10^-3 M per repeating unit, 1/15M phosphate buffer PH=5.4, 67°C 3 minutes
Description: Inhibition of heat denaturation of serum proteins is widely used for screening potential pharmaceutical agents for anti-inflammatory activity. The test is described in "Inhibition of Heat Denaturation of Serum Protein," Y. Mizushima, Arch. Int. Pharmacodyn.
In the test, the sodium salt of hydroxyethyl starch sulfate was dissolved in 1/15M phosphate suffer solution (PH=5.4) and to the solution the same phosphate buffer solution containing 1% bovine serum albumin was added in a 1:1 volume ratio. The solution was stirred at 25°C for 20 minutes and then stirred at 67°C for 3 minutes and cooled. The turbidity of the test solutions thus obtained was compared with that of a solution obtained by adding 1/15M phosphate buffer solution containing 1% bovine serum albumin to 1/15M phosphate buffer solution in a 1:1 volume ratio, and the inhibition degree of heat denaturation were calculated.

[2] = test system: pepsin; experiment: Pepsin inhibition activity; assay type: biochemical; details: 0.30% aqueous solution (PH=1.8) 1 ml; 20 μg pepsin 1 ml; 1.5% bovine hemoglobin 1 ml; 30°C, 10 min
Description: The pepsin inhibition activity of the products of the invention was tested. The anti-ulcer activity of the compounds of the invention is evident.
*0.30% Sulfate of hydroxyethyl starch aqueous solution (PH=1.8) 1 ml; 20
μ g pepsin aqueous solution (PH=1.8) 1 ml; 1.5% Bovine hemoglobin

[3] = test system: hyaluronidase; experiment: Hyaluronidase inhibition activity; assay type: biochemical; details: 0.16% in phosphate buffer (PH=7.0) 0.25 ml; hyaluronic acid phosphate buffer (PH=5.3) 0.5 ml; bovine serum albumin buffer (PH=3.75) 5.0 ml; 38°C, 45 minutes
Description: Hyaluronidase inhibition activities of sulfate of hydroxyethyl starch were tested.
*0.16% Sulfate of hydroxyethyl starch phosphate buffer (PH=7.0) 0.25 ml;
hyaluronic acid phosphate buffer (PH=5.3) 0.5 ml; Bovine serum albumin
phosphate buffer (PH=3.75) 5.0 ml 38°C, 45 minutes.

Sequence of bovine serum albumin (P02769 25-607): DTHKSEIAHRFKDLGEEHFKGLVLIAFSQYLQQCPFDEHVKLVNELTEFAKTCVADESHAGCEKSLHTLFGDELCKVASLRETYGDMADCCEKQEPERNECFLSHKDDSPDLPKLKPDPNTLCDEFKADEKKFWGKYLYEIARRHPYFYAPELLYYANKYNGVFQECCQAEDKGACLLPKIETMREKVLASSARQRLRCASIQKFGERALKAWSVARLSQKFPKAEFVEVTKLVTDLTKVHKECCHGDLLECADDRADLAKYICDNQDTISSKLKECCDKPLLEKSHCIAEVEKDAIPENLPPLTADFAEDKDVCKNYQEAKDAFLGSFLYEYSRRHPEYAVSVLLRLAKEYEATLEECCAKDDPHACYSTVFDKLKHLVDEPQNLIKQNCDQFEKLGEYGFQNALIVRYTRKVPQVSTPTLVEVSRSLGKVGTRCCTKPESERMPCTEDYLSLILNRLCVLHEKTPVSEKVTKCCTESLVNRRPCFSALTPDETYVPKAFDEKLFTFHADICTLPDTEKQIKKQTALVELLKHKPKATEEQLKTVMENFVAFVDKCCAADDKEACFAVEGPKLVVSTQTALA

Substance | Inhibition Ratios of Heat Denaturation of Bovine Serum Albumin ([1]; 3 min, 3000 µM) [%] | Inhibition Ratio (hyaluronidase) [3] [%] | Inhibition Ratios of Heat Denaturation of Bovine Serum Albumin [1] [%] | Pepsin Inhibition Ratio [2] [%]
Sodium Salt of Sulfate of Hydroxyethyl Starch [Example 6.3] | 98.1 | – | – | –
Sodium Salt of Sulfate of Hydroxyethyl Starch [Example 1.6] | 97.9 | – | – | –
Sodium Salt of Sulfate of Hydroxyethyl Starch [Example 8.2] | 98.1 | – | – | –
sodium salts of sulfate of hydroxyethyl starch [Ex. 6] | – | 96 | 93.4 | 83

Second part, led by results:

Inhibition Ratios of Heat Denaturation of Bovine Serum Albumin ([1]; 3 min, 3000 µM) [%] | Inhibition Ratio (hyaluronidase) [3] [%] | Inhibition Ratios of Heat Denaturation of Bovine Serum Albumin [1] [%] | Substance | Pepsin Inhibition Ratio [2] [%]
97.6 | – | – | Sodium Salt of Sulfate of Hydroxyethyl Starch [Example 11.1] | –
– | 10 | – | Hydroxyethyl Starch [reference compound] | 1
98.8 | – | – | Sodium Salt of Sulfate of Hydroxyethyl Starch [Example 14.5] | –
